Experiments:
[1] = target: T1, Alpha-2A adrenergic receptor (Homo sapiens, UniProt P08913); format: functional, cell-based
T1 sequence (P08913 whole entry): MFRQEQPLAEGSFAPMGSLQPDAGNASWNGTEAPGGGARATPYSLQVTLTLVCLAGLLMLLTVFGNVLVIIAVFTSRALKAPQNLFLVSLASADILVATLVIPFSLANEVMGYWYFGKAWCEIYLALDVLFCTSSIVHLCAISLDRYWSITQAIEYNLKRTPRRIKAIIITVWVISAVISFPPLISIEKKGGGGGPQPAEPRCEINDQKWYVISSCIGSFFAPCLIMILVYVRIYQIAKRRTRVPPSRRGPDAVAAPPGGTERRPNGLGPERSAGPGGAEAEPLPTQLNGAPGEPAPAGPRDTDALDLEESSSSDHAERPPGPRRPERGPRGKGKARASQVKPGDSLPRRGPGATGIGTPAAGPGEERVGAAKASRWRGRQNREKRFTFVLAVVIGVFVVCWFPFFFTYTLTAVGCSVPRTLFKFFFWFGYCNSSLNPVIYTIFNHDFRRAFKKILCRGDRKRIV

[2] = target: cGMP-inhibited 3',5'-cyclic phosphodiesterase 3A (Homo sapiens, UniProt Q14432); format: functional
Chain of cGMP-inhibited 3',5'-cyclic phosphodiesterase 3A (Q14432 whole entry): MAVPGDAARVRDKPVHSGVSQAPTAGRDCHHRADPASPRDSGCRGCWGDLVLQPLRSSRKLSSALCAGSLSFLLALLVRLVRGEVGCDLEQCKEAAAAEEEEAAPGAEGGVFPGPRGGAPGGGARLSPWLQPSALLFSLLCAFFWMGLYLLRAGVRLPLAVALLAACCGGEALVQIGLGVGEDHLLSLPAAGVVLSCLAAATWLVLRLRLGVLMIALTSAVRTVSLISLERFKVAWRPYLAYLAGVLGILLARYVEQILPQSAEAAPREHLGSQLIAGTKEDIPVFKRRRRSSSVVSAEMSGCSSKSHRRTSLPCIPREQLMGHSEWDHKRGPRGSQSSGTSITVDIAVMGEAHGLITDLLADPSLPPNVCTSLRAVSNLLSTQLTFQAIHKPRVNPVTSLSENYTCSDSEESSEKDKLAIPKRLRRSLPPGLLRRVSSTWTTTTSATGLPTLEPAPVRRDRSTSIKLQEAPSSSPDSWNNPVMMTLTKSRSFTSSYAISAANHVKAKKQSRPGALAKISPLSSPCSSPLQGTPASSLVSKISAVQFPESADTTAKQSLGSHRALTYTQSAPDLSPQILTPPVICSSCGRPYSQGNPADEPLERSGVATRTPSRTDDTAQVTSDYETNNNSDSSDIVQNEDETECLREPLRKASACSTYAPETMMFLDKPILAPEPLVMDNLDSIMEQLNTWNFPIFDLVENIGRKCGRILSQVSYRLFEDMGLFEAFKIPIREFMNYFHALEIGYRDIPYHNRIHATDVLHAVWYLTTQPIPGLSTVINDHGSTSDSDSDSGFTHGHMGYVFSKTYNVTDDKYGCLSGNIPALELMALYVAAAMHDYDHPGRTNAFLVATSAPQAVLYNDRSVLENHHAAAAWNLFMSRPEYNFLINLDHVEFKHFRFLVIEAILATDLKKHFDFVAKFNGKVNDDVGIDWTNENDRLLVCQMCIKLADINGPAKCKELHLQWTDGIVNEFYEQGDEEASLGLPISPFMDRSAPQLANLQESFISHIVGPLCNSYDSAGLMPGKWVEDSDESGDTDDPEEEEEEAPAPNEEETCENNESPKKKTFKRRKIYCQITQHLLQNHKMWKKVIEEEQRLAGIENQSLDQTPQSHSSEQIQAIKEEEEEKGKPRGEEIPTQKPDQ

Motilin receptor = Motilin receptor (Homo sapiens, UniProt O43193)
Chain of Motilin receptor (O43193 whole entry): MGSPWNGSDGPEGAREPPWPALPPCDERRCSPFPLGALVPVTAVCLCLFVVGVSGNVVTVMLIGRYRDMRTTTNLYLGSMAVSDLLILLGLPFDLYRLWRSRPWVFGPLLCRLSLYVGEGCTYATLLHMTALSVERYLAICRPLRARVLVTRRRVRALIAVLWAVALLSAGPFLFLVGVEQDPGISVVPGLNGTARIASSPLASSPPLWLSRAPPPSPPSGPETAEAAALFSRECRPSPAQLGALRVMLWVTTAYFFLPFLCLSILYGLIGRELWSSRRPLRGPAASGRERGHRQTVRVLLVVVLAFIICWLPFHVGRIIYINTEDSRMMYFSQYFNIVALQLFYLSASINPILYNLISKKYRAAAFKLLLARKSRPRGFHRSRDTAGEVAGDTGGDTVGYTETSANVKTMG

Histamine H2 receptor = Histamine H2 receptor (Homo sapiens, UniProt P25021); format: functional, cell-based
Chain of Histamine H2 receptor (P25021 whole entry): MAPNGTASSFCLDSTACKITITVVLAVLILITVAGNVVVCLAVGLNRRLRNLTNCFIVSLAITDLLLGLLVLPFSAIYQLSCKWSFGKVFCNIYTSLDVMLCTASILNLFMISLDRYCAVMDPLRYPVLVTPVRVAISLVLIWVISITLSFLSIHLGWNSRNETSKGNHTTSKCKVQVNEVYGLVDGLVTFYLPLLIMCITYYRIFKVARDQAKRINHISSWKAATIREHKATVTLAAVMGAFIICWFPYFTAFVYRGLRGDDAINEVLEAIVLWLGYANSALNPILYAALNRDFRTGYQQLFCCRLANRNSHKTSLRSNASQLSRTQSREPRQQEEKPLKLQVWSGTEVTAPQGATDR

[3] = target: Sodium-dependent dopamine transporter (Homo sapiens, UniProt Q01959)
Chain of Sodium-dependent dopamine transporter (Q01959 whole entry): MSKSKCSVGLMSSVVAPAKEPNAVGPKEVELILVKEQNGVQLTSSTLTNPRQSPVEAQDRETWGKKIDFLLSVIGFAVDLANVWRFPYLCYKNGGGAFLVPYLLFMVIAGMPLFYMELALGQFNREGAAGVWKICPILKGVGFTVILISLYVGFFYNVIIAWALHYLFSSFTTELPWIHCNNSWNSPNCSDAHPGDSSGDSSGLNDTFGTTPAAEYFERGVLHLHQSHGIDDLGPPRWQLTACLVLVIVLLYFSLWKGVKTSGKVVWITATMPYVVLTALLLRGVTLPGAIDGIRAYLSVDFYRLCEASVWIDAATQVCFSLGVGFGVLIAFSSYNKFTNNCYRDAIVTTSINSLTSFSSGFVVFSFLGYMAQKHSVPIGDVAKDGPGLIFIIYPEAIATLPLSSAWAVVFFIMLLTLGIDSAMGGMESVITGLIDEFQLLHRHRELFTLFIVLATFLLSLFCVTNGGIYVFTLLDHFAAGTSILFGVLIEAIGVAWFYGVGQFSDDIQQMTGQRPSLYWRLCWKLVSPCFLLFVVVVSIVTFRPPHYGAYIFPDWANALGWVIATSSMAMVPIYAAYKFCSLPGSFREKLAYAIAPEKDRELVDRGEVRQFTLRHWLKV

Adenosine receptor A2a = Adenosine receptor A2a (Homo sapiens, UniProt P29274)
Chain of Adenosine receptor A2a (P29274 whole entry): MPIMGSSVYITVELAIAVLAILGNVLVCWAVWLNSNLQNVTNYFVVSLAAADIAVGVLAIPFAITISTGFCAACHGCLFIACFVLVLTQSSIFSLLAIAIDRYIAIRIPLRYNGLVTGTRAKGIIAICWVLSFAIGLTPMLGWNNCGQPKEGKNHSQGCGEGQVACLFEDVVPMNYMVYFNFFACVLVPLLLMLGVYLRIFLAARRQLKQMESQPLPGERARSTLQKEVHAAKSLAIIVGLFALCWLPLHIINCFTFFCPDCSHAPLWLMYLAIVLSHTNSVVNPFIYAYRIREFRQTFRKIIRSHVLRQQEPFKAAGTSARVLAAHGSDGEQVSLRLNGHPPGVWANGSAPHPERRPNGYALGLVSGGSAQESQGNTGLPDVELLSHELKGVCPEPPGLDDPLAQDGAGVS

B2 bradykinin receptor = target: T2, B2 bradykinin receptor (Homo sapiens, UniProt P30411)
T2 sequence (P30411 whole entry): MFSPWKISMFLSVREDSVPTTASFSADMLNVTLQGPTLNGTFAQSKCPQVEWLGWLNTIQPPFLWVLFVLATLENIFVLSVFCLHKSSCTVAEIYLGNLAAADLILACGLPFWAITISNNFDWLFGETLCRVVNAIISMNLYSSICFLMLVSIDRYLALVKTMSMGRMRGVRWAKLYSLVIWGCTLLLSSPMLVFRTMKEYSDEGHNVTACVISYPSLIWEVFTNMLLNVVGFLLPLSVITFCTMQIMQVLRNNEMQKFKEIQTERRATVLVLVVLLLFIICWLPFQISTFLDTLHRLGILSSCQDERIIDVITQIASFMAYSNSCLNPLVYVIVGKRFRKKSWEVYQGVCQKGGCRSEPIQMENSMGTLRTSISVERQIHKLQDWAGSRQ

[4] = target: T3, 5-hydroxytryptamine receptor 2C (Homo sapiens, UniProt P28335)
T3 sequence (P28335 whole entry): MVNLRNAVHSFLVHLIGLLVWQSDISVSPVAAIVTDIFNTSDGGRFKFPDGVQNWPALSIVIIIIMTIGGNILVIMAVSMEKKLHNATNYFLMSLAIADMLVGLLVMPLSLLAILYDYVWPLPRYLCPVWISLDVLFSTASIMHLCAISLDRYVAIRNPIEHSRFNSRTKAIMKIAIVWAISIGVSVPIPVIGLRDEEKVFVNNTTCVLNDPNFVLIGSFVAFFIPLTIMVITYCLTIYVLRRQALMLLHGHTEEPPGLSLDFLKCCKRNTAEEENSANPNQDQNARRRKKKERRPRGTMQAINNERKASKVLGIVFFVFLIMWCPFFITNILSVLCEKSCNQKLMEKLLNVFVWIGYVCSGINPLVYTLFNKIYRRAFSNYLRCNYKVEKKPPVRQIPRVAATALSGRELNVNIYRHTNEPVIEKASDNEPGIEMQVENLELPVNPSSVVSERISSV

[5] = target: Sodium-dependent noradrenaline transporter (Homo sapiens, UniProt P23975)
Chain of Sodium-dependent noradrenaline transporter (P23975 whole entry): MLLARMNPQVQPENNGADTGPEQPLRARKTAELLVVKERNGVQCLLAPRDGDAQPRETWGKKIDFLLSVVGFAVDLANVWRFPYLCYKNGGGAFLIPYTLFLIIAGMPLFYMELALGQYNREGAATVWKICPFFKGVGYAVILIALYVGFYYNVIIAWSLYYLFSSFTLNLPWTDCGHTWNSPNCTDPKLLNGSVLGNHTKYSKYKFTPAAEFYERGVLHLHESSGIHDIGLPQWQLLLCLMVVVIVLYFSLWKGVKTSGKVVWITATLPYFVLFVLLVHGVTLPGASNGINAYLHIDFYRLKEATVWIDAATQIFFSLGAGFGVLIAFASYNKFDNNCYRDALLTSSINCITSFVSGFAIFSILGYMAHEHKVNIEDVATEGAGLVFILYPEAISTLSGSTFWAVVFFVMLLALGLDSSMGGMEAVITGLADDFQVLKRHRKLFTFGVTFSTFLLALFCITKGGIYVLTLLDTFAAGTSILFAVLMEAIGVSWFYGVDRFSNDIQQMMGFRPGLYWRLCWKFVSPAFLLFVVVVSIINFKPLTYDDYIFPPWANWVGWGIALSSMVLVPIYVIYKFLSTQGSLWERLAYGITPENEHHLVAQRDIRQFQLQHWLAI

[6] = target: T4, Amine oxidase [flavin-containing] A (Homo sapiens, UniProt P21397); format: functional
T4 sequence (P21397 whole entry): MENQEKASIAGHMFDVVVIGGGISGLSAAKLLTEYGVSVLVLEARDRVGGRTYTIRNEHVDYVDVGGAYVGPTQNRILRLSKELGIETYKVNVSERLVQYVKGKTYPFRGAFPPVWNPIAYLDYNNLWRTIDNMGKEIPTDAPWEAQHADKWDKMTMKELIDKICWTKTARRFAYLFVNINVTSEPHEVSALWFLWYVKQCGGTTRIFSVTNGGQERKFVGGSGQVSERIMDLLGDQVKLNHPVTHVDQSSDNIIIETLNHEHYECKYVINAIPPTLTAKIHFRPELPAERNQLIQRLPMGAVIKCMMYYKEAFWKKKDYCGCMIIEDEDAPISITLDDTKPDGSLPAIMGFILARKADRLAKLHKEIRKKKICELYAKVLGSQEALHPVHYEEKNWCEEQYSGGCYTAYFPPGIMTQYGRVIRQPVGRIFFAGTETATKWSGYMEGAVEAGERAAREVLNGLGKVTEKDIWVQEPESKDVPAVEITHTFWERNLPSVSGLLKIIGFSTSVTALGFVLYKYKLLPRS

[7] = target: Beta-2 adrenergic receptor (Homo sapiens, UniProt P07550)
Chain of Beta-2 adrenergic receptor (P07550 whole entry): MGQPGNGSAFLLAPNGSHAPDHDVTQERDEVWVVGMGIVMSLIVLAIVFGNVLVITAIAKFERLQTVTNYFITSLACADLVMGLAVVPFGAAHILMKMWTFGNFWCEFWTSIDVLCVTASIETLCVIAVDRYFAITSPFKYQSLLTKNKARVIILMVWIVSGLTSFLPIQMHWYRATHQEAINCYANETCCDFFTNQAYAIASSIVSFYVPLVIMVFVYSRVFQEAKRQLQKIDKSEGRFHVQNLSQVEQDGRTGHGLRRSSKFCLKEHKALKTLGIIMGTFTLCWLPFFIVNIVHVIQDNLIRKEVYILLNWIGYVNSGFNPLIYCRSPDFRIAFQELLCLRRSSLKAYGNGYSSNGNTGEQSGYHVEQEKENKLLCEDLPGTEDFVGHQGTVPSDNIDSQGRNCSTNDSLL
Also: assay procedure not described here.

| Compound | AC50 [1] [µM] | AC50 [2] [µM] | AC50 (Motilin receptor) [µM] | AC50 (Histamine H2 receptor) [µM] | AC50 [3] [µM] | AC50 (Adenosine receptor A2a) [µM] | AC50 (B2 bradykinin receptor) [µM] | AC50 [4] [µM] | AC50 [5] [µM] | AC50 [6] [µM] | AC50 [7] [µM] |
| --- | --- | --- | --- | --- | --- | --- | --- | --- | --- | --- | --- |
| C=C1CC[C@@]2(O)[C@H]3Cc4ccc(O)c5c4[C@@]2(CCN3CC2CC2)[C@H]1O5 | > 30 | > 30 | > 30 | > 30 | > 30 | > 30 | > 30 | > 30 | > 30 | > 30 | – |
| COc1ccc2c(c1)c(CC(=O)OCC(=O)O)c(C)n2C(=O)c1ccc(Cl)cc1 [ACEMETACIN] | > 30 | > 30 | > 30 | > 30 | > 30 | > 30 | > 30 | > 30 | > 30 | > 30 | > 30 |
| Nc1ncnc2c1ncn2[C@@H]1O[C@H](COP(=O)(O)O)[C@@H](O)[C@H]1O [ADENOSINE PHOSPHATE] | > 30 | 16 | > 30 | > 30 | > 30 | > 30 | > 30 | > 30 | > 30 | > 30 | > 30 |
| CCCC(CCC)C(=O)O[C@H]1C[C@H]2CC[C@@H](C1)[N+]2(C)C [ANISOTROPINE] | > 30 | > 30 | > 30 | > 30 | > 30 | > 30 | > 30 | > 30 | – | > 30 | – |
| CC(C)c1c(C(=O)Nc2ccccc2)c(-c2ccccc2)c(-c2ccc(F)cc2)n1CC[C@@H](O)C[C@@H](O)CC(=O)O [ATORVASTATIN] | > 10 | > 10 | > 10 | > 10 | – | > 30 | > 30 | > 30 | > 30 | > 10 | > 10 |
| CCCCN1CCCCC1C(=O)Nc1c(C)cccc1C (configuration not stated) [BUPIVACAINE] | > 30 | > 30 | > 30 | > 30 | > 30 | > 30 | > 30 | > 30 | – | > 30 | – |
| CCOC(=O)[C@H](CCc1ccccc1)N[C@H]1CCCN2CCC[C@@H](C(=O)O)N2C1=O [CILAZAPRIL] | > 30 | > 30 | > 30 | > 30 | > 30 | > 30 | > 30 | > 30 | > 30 | > 30 | > 30 |
| [H]/N=C(/N)c1ccc(NCc2nc3cc(C(=O)N(CCC(=O)O)c4ccccn4)ccc3n2C)cc1 [DABIGATRAN] | > 30 | > 30 | > 30 | > 30 | > 30 | > 30 | > 30 | > 30 | > 30 | > 30 | – |
| CCCCOc1cc(C(=O)NCCN(CC)CC)c2ccccc2n1 [DIBUCAINE] | > 10 | > 30 | > 30 | > 10 | > 10 | > 30 | > 30 | > 30 | > 10 | > 10 | > 10 |
| COc1c(N2CCNC(C)C2)c(F)cc2c(=O)c(C(=O)O)cn(C3CC3)c12 (configuration not stated) [GATIFLOXACIN] | > 10 | > 30 | > 10 | > 30 | > 10 | > 10 | > 10 | > 30 | > 10 | > 10 | > 10 |
| COC(=O)C1=C(C)NC(C)=C(C(=O)OC(C)C)C1c1cccc2nonc12 (configuration not stated) [ISRADIPINE] | > 10 | 23 | 14.7 | > 30 | 26 | > 30 | > 30 | > 30 | > 30 | > 30 | > 10 |
| CCN1CCC[C@H]1CNC(=O)c1cc(S(N)(=O)=O)ccc1OC [LEVOSULPIRIDE] | > 10 | > 30 | > 10 | > 10 | > 30 | > 30 | > 30 | > 30 | > 30 | > 10 | > 30 |
| CC/C=C\C/C=C\C/C=C\CCCCCCCC(=O)O [LINOLENIC ACID] | > 30 | > 30 | > 30 | > 30 | > 30 | > 30 | > 30 | > 30 | > 30 | > 30 | – |
| C[C@H]1C[C@@H]2[C@H]([C@@H](O)C[C@@]3(C)[C@H]2CC[C@]3(O)C(=O)COC(=O)CCC(=O)O)[C@@]2(C)C=CC(=O)C=C12 [METHYLPREDNISOLONE HEMISUCCINATE] | > 30 | > 30 | > 30 | > 30 | > 30 | > 30 | > 30 | > 30 | > 30 | > 30 | – |
| CCCCC(C)(O)C/C=C/[C@H]1[C@H](O)CC(=O)[C@@H]1CCCCCCC(=O)OC (some centres not stated) [MISOPROSTOL] | > 30 | > 30 | > 30 | > 30 | > 30 | > 30 | > 30 | > 10 | > 30 | > 30 | – |
| O=C(O)CCCc1ccccc1 [PHENYLBUTANOIC ACID] | > 30 | > 30 | > 10 | – | 3.2 | > 10 | > 30 | > 30 | > 10 | > 30 | > 10 |
| CCCOc1ccc(C(=O)OCCN(CC)CC)cc1N [PROPARACAINE] | > 30 | > 30 | > 30 | > 30 | > 30 | > 30 | > 30 | > 30 | > 30 | 11 | – |
| O=C1NCCN1CCN1CCC(c2cn(-c3ccc(F)cc3)c3ccc(Cl)cc23)CC1 [SERTINDOLE] | – | > 30 | 4.3 | > 30 | 1.7 | > 30 | > 30 | – | 2.7 | 22 | – |
| Cc1c(Cl)cccc1Nc1ccccc1C(=O)O [TOLFENAMIC ACID] | 20 | > 30 | > 30 | > 30 | > 30 | > 30 | > 30 | > 30 | – | > 30 | – |

From ChEMBL document CHEMBL5291721, “A preclinical secondary pharmacology resource illuminates target-adverse drug reaction associations of marketed drugs” (Nat Commun, 2023)
